ChEMBL document CHEMBL1155980, “Prenyloxyphenylpropanoids as a novel class of anticonvulsive agents” (2009)
Active and inactive are the calls of the source. No cut-off for these calls is given here.

Assays:
Mus musculus [1] = experiment: Anticonvulsant activity in mouse at 300 mg/kg, ip after 60 mins by MES test; assay type: functional, organism-based; parameters: dose 300 mg/kg
Mus musculus [2] = experiment: Anticonvulsant activity in mouse at 300 mg/kg, ip after 5 mins by MES test; assay type: functional, organism-based; parameters: dose 300 mg/kg
Mus musculus [3] = experiment: Anticonvulsant activity in mouse at 300 mg/kg, ip after 120 mins by MES test; assay type: functional, organism-based; parameters: dose 300 mg/kg
Mus musculus [4] = experiment: Anticonvulsant activity in mouse at 300 mg/kg, ip after 15 mins by MES test; assay type: functional, organism-based; parameters: dose 300 mg/kg
Mus musculus [5] = experiment: Anticonvulsant activity in mouse at 300 mg/kg, ip after 30 mins by MES test; assay type: functional, organism-based; parameters: dose 300 mg/kg
Mus musculus [6] = species: Mus musculus; experiment: Anticonvulsant activity in mouse after 15 mins by MES test; assay type: functional; settings: 0.25 h
Mus musculus [7] = species: Mus musculus; experiment: Anticonvulsant activity in mouse after 30 mins by MES test; assay type: functional; settings: 0.5 h
Mus musculus [8] = species: Mus musculus; experiment: Anticonvulsant activity in mouse after 60 mins by MES test; assay type: functional; settings: 1 h
Mus musculus [9] = species: Mus musculus; experiment: Anticonvulsant activity in mouse after 5 mins by MES test; assay type: functional
Thoracic aorta = experiment: Muscle relaxant activity in rat thoracic aorta assessed as inhibition of KCl-induced contraction at 100 uM; assay type: functional

Row | SMILES | Activity (Mus musculus [1]) | Activity (Mus musculus [2]) | Activity (Mus musculus [3]) | Activity (Mus musculus [4]) | Activity (Mus musculus [5]) | ED50 (Mus musculus [6]) [mg/kg] | ED50 (Mus musculus [7]) [mg/kg] | ED50 (Mus musculus [8]) [mg/kg] | ED50 (Mus musculus [9]) [mg/kg] | inhibition at 100 µM (Thoracic aorta) [%]
1 | CC(=O)c1ccc(OC/C=C(\C)CCC=C(C)C)cc1O | inactive | inactive | inactive | inactive | inactive | – | – | – | – | –
2 | COc1cc(/C=C/C(=O)O)ccc1OC/C=C(\C)CCC=C(C)C | – | – | inactive | Active | Active | 224 | 224 | > 350 | 225 | –
3 | CC(C)=CCOc1ccc2ccc(=O)oc2c1O | inactive | – | inactive | – | inactive | – | – | – | – | –
4 | COc1cc(/C=C/C(=O)O)ccc1OCC=C(C)C | inactive | inactive | inactive | inactive | inactive | – | – | – | – | –
5 | COc1cc(C(=O)O)ccc1OCC=C(C)C | inactive | inactive | inactive | inactive | inactive | – | – | – | – | –
6 | COc1c(OC/C=C(\C)CCC=C(C)C)ccc2ccc(=O)oc12 | inactive | – | inactive | inactive | inactive | – | – | – | – | –
7 | CC(C)=CCOc1ccc(/C=C/C(=O)O)cc1 | – | Active | inactive | Active | – | 262 | 312 | > 350 | 228 | –
8 | CC(C)=CCOc1ccc(C(=O)/C=C/c2ccccc2)c(O)c1 | inactive | inactive | inactive | inactive | inactive | – | – | – | – | –
9 | COc1cc(C(=O)O)ccc1OC/C=C(\C)CCC=C(C)C | inactive | inactive | inactive | inactive | inactive | – | – | – | – | –
10 | CC(C)=CCC/C(C)=C/COc1ccc(/C=C/C(=O)O)cc1 | inactive | inactive | inactive | inactive | inactive | – | – | – | – | –
11 | CC(=O)c1ccc(OCC=C(C)C)cc1O | inactive | inactive | inactive | inactive | inactive | – | – | – | – | –
12 | CC(C)=CCOc1ccc2ccc(=O)oc2c1 [7-PRENYLOXYCOUMARIN] | – | Active | inactive | Active | Active | 238 | 221 | > 350 | > 350 | 80
13 | COc1c(OCC=C(C)C)ccc2ccc(=O)oc12 | inactive | inactive | inactive | inactive | inactive | – | – | – | – | –
14 | CC(C)=CCOc1ccc(C(=O)/C=C/c2ccc(O)cc2)c(O)c1 | inactive | inactive | inactive | inactive | inactive | – | – | – | – | –
15 | CC(C)=CCC/C(C)=C/COc1ccc(C(=O)/C=C/c2ccc(O)cc2)c(O)c1 | inactive | inactive | inactive | inactive | inactive | – | – | – | – | –
16 | CC(C)=CCOc1ccc(CCC(=O)O)cc1 | inactive | inactive | inactive | inactive | inactive | – | – | – | – | –
17 | CC(C)=CCC/C(C)=C/COc1ccc2ccc(=O)oc2c1 | inactive | inactive | – | inactive | inactive | – | – | – | – | –
